Test results reported in patent US10544142B2, “Crystal forms of palbociclib, and preparation method and use therefor” (SHANGHAI BEGREAT PHARMATECH, priority 2016, dated 2020).

Tests used:
[1] = prior art statement; cited from earlier work
[2] = Solubility of crystal Forms in pH 6.8 buffer (1 hour equilibration, filtration, HPLC); assay type: physicochemical; conditions: for Solubility in pH 6.8 buffer: 20 mg in 1 mL, equilibrated for 1 hour, 0.45 μm filter, HPLC; for solubility in pH 6.8 buffer compared to existing crystal Forms: comparison with crystal Forms A and B
Method: The solubility of several new crystal Forms prepared in the above examples and Form A and B (prepared according to the method of WO2014128588A1) in a pH buffer solution (pH 6.8) was determined. 20 mg Form VIII, Form IX, Form XIV, Form A and Form B was precisely weighed and placed in a 2-mL glass vial, 1 mL of pH 6.8 buffer was added, sealed with cap, and mixed on a rotating mixer. After the suspension was equilibrated for 1 hour, the mixture was filtered through a 0.45 μm needle filter, and the concentration of 6-Acetyl-8-cyclopentyl-5-methyl-2-(5-piperazin-1-yl-pyridin-2-ylamino)-8H-pyrido[2,3-d]pyrimidin-7-one in the filtrate was analyzed by HPLC to obtain the solubility of different crystal Forms. The solubility of the polymorphs of 6-Acetyl-8-cyclopentyl-5-methyl-2-(5-piperazin-1-yl-pyridin-2-ylamino)-8H-pyrido[2,3-d]pyrimidin-7-one is shown in the following table: […]

[3] = Dissolution rate in pH 6.8 buffer; assay type: physicochemical; conditions: comparison with crystal Forms A and B

Row | SMILES | solubility in water [1] | Solubility in pH 6.8 buffer [2] [mg/mL] | solubility in pH 6.8 buffer compared to existing crystal Forms [2] | dissolution rate in pH 6.8 buffer compared to existing crystal Forms [3]
1 | CC(=O)c1c(C)c2cnc(Nc3ccc(N4CCNCC4)cn3)nc2n(C2CCCC2)c1=O [Form A, 6-Acetyl-8-cyclopentyl-5-methyl-2-(5-piperazin-1-yl-pyridin-2-ylamino)-8H-pyrido[2,3-d]pyrimidin-7-one, reference compound] | very small | 0.002 |  | 
2 | CC(=O)c1c(C)c2cnc(Nc3ccc(N4CCNCC4)cn3)nc2n(C2CCCC2)c1=O [Form B, 6-Acetyl-8-cyclopentyl-5-methyl-2-(5-piperazin-1-yl-pyridin-2-ylamino)-8H-pyrido[2,3-d]pyrimidin-7-one, reference compound] | very small | 0.003 |  | 
3 | CC(=O)c1c(C)c2cnc(Nc3ccc(N4CCNCC4)cn3)nc2n(C2CCCC2)c1=O [Form IX, 6-Acetyl-8-cyclopentyl-5-methyl-2-(5-piperazin-1-yl-pyridin-2-ylamino)-8H-pyrido[2,3-d]pyrimidin-7-one] |  | 0.015 |  | 
4 | CC(=O)c1c(C)c2cnc(Nc3ccc(N4CCNCC4)cn3)nc2n(C2CCCC2)c1=O [Form VIII, 6-Acetyl-8-cyclopentyl-5-methyl-2-(5-piperazin-1-yl-pyridin-2-ylamino)-8H-pyrido[2,3-d]pyrimidin-7-one] |  | 0.010 | greater than the existing crystal Forms A and B | greater than the existing crystal Forms A and B
5 | CC(=O)c1c(C)c2cnc(Nc3ccc(N4CCNCC4)cn3)nc2n(C2CCCC2)c1=O [Form XI, 6-Acetyl-8-cyclopentyl-5-methyl-2-(5-piperazin-1-yl-pyridin-2-ylamino)-8H-pyrido[2,3-d]pyrimidin-7-one] |  |  | greater than the existing crystal Forms A and B | greater than the existing crystal Forms A and B
6 | CC(=O)c1c(C)c2cnc(Nc3ccc(N4CCNCC4)cn3)nc2n(C2CCCC2)c1=O [Form XIV, 6-Acetyl-8-cyclopentyl-5-methyl-2-(5-piperazin-1-yl-pyridin-2-ylamino)-8H-pyrido[2,3-d]pyrimidin-7-one] |  | 0.012 | greater than the existing crystal Forms A and B | greater than the existing crystal Forms A and B
